US9920057B2, “Substituted pyrazino[1′,2′:1 ,6]pyrido[3,4-b]indoles as phosphodiesterase type 5 inhibitors” (Chongqing University of Arts and Sciences, priority 2015, dated 2018)
Where “and” joins values, the source holds several entries; their conditions need not be identical. Equal values may be shown once. Read-outs that look alike come from different tables or passages of the source.

Tests used:
[1] = biological target: T1, PDE3A (Homo sapiens, UniProt Q14432); assay: Inhibition of PDE activity (assay kit); format: biochemical
T1 construct: purchased
T1 sequence (Q14432 whole entry): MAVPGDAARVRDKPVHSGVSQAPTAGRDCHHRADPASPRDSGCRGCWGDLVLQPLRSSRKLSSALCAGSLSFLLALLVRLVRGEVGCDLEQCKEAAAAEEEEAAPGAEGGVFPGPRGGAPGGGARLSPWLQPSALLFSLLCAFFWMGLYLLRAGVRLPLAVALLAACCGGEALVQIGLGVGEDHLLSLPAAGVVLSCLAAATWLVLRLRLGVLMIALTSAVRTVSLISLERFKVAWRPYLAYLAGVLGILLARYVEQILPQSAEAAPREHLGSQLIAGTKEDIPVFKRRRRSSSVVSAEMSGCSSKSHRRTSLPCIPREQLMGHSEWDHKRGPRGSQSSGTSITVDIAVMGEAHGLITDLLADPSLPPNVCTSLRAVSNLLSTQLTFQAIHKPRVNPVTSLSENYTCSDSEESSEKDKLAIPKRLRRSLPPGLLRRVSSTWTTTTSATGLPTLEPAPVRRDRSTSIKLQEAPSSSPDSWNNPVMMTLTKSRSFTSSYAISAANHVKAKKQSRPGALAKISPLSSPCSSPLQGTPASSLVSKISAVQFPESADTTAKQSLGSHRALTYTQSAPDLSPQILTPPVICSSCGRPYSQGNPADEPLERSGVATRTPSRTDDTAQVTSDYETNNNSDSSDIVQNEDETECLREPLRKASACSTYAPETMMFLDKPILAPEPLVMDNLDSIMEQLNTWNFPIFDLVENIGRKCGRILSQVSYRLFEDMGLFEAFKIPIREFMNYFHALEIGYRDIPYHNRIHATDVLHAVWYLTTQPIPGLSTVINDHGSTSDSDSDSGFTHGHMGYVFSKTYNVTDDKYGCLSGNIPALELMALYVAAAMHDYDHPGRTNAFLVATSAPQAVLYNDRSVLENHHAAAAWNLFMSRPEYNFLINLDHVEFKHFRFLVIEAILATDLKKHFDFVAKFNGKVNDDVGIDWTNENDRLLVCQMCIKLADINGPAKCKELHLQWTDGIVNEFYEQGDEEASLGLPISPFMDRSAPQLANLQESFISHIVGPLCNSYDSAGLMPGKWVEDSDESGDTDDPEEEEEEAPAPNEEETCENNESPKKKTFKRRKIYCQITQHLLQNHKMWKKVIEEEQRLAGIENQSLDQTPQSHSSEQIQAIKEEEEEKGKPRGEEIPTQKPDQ
Experimental: (§1) i. Supplement 99 μl assay buffer per well, then add 1 μl compound in DMSO dilution to wells of V96 MicroWell Plates and uniformly mix;
(§2) ii. Add 5 μl compound in assay buffer dilution to each well of 96-well microplate;
(§3) the final concentration of compound as below:
(§4) The inhibitory potential of test compounds on several types of phosphodiesterase (PDE) activity is determined according to the protocol of assay kit.

[2] = biological target: T2, PDE11A (Homo sapiens, UniProt Q9HCR9); assay: Inhibition of PDE activity (assay kit); format: biochemical
T2 construct: purchased
T2 sequence (Q9HCR9 whole entry): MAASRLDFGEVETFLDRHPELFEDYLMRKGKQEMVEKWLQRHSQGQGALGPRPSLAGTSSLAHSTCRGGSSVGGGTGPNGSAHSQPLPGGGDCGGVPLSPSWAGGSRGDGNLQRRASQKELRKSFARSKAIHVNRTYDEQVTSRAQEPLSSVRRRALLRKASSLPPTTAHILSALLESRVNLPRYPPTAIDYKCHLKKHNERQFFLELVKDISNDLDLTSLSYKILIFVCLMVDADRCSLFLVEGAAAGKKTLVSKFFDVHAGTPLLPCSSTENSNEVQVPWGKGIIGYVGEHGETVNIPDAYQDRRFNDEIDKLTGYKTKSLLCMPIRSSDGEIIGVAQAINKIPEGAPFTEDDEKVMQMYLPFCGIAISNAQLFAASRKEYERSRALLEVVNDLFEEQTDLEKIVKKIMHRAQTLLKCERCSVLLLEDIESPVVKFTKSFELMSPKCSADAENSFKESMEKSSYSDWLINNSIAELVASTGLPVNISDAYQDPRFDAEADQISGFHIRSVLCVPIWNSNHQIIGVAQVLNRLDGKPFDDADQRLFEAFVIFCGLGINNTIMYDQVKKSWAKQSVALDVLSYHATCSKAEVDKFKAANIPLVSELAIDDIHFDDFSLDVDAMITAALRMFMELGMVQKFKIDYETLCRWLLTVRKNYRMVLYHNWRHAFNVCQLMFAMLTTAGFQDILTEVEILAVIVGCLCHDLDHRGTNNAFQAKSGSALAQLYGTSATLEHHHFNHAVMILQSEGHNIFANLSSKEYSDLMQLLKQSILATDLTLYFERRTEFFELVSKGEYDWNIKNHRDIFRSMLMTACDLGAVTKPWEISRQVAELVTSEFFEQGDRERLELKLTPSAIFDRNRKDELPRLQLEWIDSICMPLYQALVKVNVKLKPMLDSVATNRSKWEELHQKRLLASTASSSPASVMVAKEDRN
Experimental: as §1, §2, §3, §4

[3] = biological target: T3, PDE4A (Homo sapiens, UniProt P27815); assay: Inhibition of PDE activity (assay kit); format: biochemical
T3 construct: purchased
T3 sequence (P27815 1-647 isoform P27815-4): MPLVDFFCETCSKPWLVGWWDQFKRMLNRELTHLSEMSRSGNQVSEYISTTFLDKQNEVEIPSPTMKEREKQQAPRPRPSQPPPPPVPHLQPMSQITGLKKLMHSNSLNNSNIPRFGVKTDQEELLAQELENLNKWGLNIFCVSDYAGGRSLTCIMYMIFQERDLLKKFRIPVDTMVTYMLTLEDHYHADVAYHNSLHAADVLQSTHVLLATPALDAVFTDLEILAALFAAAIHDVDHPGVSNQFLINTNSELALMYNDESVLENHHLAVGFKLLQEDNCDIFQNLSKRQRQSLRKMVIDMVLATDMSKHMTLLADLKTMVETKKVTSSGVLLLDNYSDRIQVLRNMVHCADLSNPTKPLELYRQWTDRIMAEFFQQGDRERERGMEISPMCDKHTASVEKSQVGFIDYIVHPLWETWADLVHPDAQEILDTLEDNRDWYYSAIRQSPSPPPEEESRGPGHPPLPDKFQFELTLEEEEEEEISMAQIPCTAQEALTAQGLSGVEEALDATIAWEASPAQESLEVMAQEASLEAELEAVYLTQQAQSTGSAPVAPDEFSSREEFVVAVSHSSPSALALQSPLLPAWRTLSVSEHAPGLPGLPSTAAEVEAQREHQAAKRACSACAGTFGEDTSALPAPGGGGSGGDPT
Experimental: as §1, §2, §3, §4

[4] = biological target: T4, PDE6C (Homo sapiens, UniProt P51160); assay: Inhibition of PDE activity (assay kit); format: biochemical
T4 construct: purchased
Experimental: as §1, §2, §3, §4

[5] = biological target: T5, PDE7A (Homo sapiens, UniProt Q13946); assay: Inhibition of PDE activity (assay kit); format: biochemical
T5 construct: purchased
T5 sequence (Q13946 whole entry): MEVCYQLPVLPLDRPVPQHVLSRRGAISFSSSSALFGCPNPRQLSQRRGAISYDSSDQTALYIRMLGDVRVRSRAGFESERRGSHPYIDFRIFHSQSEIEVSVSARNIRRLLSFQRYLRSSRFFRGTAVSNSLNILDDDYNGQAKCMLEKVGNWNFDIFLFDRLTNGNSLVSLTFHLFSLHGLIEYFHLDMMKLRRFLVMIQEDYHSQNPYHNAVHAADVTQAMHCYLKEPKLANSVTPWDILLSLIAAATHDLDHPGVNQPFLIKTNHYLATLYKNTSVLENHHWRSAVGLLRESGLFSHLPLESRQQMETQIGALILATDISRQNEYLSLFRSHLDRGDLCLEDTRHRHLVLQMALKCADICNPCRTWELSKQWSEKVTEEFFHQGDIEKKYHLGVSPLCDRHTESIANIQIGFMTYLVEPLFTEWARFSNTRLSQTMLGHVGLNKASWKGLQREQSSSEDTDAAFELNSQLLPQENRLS
Experimental: as §1, §2, §3, §4

[6] = biological target: T6, PDE2A (Homo sapiens, UniProt O00408); assay: Inhibition of PDE activity (assay kit); format: biochemical
T6 construct: purchased
T6 sequence (O00408 whole entry): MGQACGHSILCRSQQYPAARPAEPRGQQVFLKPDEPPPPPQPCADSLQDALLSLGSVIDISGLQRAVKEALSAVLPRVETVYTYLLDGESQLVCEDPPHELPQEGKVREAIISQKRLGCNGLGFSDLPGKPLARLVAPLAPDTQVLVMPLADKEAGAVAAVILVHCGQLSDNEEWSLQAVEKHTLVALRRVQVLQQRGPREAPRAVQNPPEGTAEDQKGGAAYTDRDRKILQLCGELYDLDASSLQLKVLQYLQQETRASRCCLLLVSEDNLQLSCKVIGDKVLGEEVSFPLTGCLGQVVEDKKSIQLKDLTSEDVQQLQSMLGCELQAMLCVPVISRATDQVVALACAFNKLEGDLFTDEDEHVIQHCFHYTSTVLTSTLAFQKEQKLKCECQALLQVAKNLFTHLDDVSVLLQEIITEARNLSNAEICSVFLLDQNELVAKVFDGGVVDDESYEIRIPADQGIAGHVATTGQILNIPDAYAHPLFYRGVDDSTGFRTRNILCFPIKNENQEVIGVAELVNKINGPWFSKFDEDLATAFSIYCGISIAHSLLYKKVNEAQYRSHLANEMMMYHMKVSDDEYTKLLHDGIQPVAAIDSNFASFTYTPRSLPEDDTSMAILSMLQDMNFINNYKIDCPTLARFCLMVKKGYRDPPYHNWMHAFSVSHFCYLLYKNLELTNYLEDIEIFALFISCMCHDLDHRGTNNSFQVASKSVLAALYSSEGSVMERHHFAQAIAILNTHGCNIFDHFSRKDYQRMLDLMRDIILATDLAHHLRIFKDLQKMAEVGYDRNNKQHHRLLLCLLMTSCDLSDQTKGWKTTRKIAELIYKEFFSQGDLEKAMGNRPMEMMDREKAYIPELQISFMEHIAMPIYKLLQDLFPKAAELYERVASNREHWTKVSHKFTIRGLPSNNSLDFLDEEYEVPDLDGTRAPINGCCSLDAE
Experimental: as §1, §2, §3, §4

[7] = biological target: T7, PDE1A (Homo sapiens, UniProt P54750); assay: Inhibition of PDE activity (assay kit); format: biochemical
T7 construct: purchased
T7 sequence (P54750 whole entry): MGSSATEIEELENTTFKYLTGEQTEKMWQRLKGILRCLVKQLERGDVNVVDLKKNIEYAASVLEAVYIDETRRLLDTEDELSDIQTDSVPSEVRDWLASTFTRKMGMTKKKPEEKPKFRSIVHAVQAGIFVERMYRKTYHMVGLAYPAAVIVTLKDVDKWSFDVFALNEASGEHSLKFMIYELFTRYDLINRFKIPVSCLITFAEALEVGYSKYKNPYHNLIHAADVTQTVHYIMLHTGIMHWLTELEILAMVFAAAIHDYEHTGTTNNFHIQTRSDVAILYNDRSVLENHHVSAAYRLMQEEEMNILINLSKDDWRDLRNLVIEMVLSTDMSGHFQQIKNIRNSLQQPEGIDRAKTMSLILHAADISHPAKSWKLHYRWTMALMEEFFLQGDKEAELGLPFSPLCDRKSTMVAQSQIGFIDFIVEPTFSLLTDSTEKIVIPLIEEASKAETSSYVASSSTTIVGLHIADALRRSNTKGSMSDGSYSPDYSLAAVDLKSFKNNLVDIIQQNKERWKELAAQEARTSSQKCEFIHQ
Experimental: as §1, §2, §3, §4

[8] = Study on pharmacokinetics in rats, oral administration; format: in vivo, SD rat
Experimental: Sample Preparation Method: One step protein precipitation
Precipitant: ACN, with concentration of Verapamil (5.00 ng·mL-1)
Calibration Curve and QC samples Preparation: 5.00 μL each of the calibration or QC working solution and 45.0 μL of blank plasma were transferred into a 1.5-mL microcentrifuge tube. Final standard curve concentration levels were 1.00, 2.50, 5.00, 10.0, 50.0, 100, 500 and 1000 ng·mL-1. The QC concentration levels were 2.50 or 5.00, 50.0 and 800 ng·mL-1. Dilution QC was 5000 ng·mL-1.
Plasma Samples Preparation: Aliquots of 10.0 μL of real samples, calibration curve samples and QC samples were supplemented with 100 μL of precipitant. After vortexed for 3.00 min and centrifuged at 12000 rpm for 5.00 min, the supernatant 10 μL was injected for LC-MS/MS analysis.
Number of Rats/Group: 3/group
Administration Route: oral administration
Blood Collection Time: 0 min, 15 min, 30 min, 1 h, 2 h, 4 h, 6 h, 8 h, 24 h

[9] = system: normal rat; assay: Erectile function of normal rat: blood pressure, intracavernous pressure and detumescence time on cavernous nerve stimulation; format: in vivo
Experimental: Rats were anesthetized with 2% pentobarbital […], then incision was made in the right side of neck, a PE-50 silicon tube connected with a pressure transducer was inserted into the carotid artery, to record the change of the blood pressure.
The erectile activity was induced by a bipolar stainless-steel, stimulus parameters at a pulse width of […], stimulation frequency of 7.98 Hz, current of 3 mA, stimulation duration of 40 s, and then record the intracavernous pressure (ICP).
Assessment of erectile function: ICP, BP, change of ICP and detumescence time were monitored though electric cavernous nerve stimulation at 2, 6 and 24 hours post dosing. Erectile function was evaluated by change of ICP and detumescence time.

[10] = biological target: T8, PDE5A (Homo sapiens, UniProt O76074); assay: Inhibition against PDE5 (Homogenous Time Resolve Fluoresce); format: biochemical; settings: HTF
T8 construct: purchased SIGMA-ALDRICH E904
Experimental: Method: IC50 of an inhibition effect on PDE5A (E904, SIGMA-ALDRICH) of test compounds was tested by using Sildenafil (S1431, selleck) as a positive control sample and the method of Homogenous Time Resolve Fluoresce, HTF (Cat. No. 62GM2PEB, Cisbio.)

[11] = Mean of 3 rats, oral 10.0 mg · kg^−1
[12] = individual rats, oral 10.0 mg · kg^−1
[13] = 2 hours after dosing, High dose
[14] = 2 hours after dosing, Middle dose
[15] = 6 hours after dosing, High dose
[16] = 6 hours after dosing, Middle dose
[17] = 24 hours after dosing, High dose
[18] = 24 hours after dosing, Low dose
[19] = 24 hours after dosing, Middle dose

[2H]C1([2H])Oc2ccc([C@@H]3c4[nH]c5ccccc5c4C[C@@H]4C(=O)N(N)CC(=O)N34)cc2O1 [DDCI-01, (6R,12aR)-2-amino-6-(benzo[d][1,3]dioxol-5-yl-2,2-d2)-2,3,6,7,12,12a-hexahydropyrazino[1′,2′:1,6]pyrido[3,4-b]indole-1,4-dione]
IC50 [1]: > 10 µM | inhibition at 10 µM ([1]; at 10 μM): 0% | IC50 [2]: 2.6 µM and 2.64 µM | IC50 ([3]; PDE4A): > 10 µM | inhibition at 10 µM ([3]; PDE4A1A, at 10 μM): 0% | IC50 [4]: 14.7 µM | IC50 [5]: > 10 µM | inhibition at 10 µM ([5]; at 10 μM): 0% | IC50 [6]: > 10 µM | inhibition at 10 µM ([6]; at 10 μM): 0% | IC50 [7]: > 10 µM | inhibition at 10 µM ([7]; at 10 μM): 0% | AUMC0-inf [8, 11]: 50280 h · h · ng · mL^−1 | AUMC0-t [8, 11]: 49982 h · h · ng · mL^−1 | Kel [8, 11]: 0.305 h⁻¹ | MRTPO [8, 11]: 4.68 h | half-life (T1/2), comparison in words ([8]; SD rat, oral, compared with Cialis and DDCI02): slightly shorter than that of Cialis and significantly shorter than that of DDCI02 | half-life ([8]; SD, rat, plasma, po, 10 mg/kg, Mean of 3 rats, oral 10.0 mg · kg^−1): 2.29 h | AUC0-inf ([8]; SD, rat, plasma, po, 10 mg/kg, Mean of 3 rats, oral 10.0 mg · kg^−1, read-out: AUC0-inf): 10800 ng·h/mL | AUC0-t ([8]; SD, rat, plasma, po, 10 mg/kg, Mean of 3 rats, oral 10.0 mg · kg^−1, read-out: AUC0-t): 10800 ng·h/mL | Cmax ([8]; SD, rat, plasma, po, 10 mg/kg, Mean of 3 rats, oral 10.0 mg · kg^−1, read-out: Cmax): 1470 ng/mL | half-life ([8]; SD, rat, plasma, po, 10 mg/kg, individual rats, oral 10.0 mg · kg^−1): 2.12 h | AUC0-inf ([8]; SD, rat, plasma, po, 10 mg/kg, individual rats, oral 10.0 mg · kg^−1, read-out: AUC0-inf): 9980 ng·h/mL | AUC0-t ([8]; SD, rat, plasma, po, 10 mg/kg, individual rats, oral 10.0 mg · kg^−1, read-out: AUC0-t): 9970 ng·h/mL | Cmax ([8]; SD, rat, plasma, po, 10 mg/kg, individual rats, oral 10.0 mg · kg^−1, read-out: Cmax): 1300 ng/mL | Tmax ([8]; SD, rat, plasma, individual rats, oral 10.0 mg · kg^−1): 2 h | AUC0-inf [8, 12]: 11221 ng·h/mL and 11087 ng·h/mL | AUC0-t [8, 12]: 11202 ng·h/mL and 11080 ng·h/mL | AUMC0-inf [8, 12]: 48665 h · h · ng · mL^−1 and 51065 h · h · ng · mL^−1 and 51110 h · h · ng · mL^−1 | AUMC0-t [8, 12]: 48497 h · h · ng · mL^−1 and 50539 h · h · ng · mL^−1 and 50911 h · h · ng · mL^−1 | Cmax [8, 12]: 1574 ng/mL and 1528 ng/mL | Kel [8, 12]: 0.327 h⁻¹ and 0.269 h⁻¹ and 0.319 h⁻¹ | MRTPO [8, 12]: 4.88 h and 4.55 h and 4.61 h | t1/2 [8, 12]: 2.58 h and 2.17 h | Cmax and Auc, comparison in words ([8]; rat, oral, compared with Cialis): more excellent than those of Cialis | BP after stimulation [9, 13]: 60.97 ± 19.95 mmHg | BP before stimulation [9, 13]: 91.86 ± 21.57 mmHg | Change of BP [9, 13]: 30.89 ± 4.09 mmHg | Change of ICP [9, 13]: 41.20 ± 9.83 mmHg | Detumescence Time [9, 13]: 101.00 ± 21.56 s | ICP after stimulation [9, 13]: 52.25 ± 9.49 mmHg | ICP before stimulation [9, 13]: 11.05 ± 3.25 mmHg | BP after stimulation ([9]; 2 hours after dosing, Low dose): 63.89 ± 2.93 mmHg | BP before stimulation ([9]; 2 hours after dosing, Low dose): 97.43 ± 11.45 mmHg | Change of BP ([9]; 2 hours after dosing, Low dose): 33.54 ± 13.57 mmHg | Change of ICP ([9]; 2 hours after dosing, Low dose): 31.38 ± 3.09 mmHg | Detumescence Time ([9]; 2 hours after dosing, Low dose): 38.00 ± 10.42 s | ICP after stimulation ([9]; 2 hours after dosing, Low dose): 42.86 ± 5.14 mmHg | ICP before stimulation ([9]; 2 hours after dosing, Low dose): 11.48 ± 4.57 mmHg | BP after stimulation [9, 14]: 70.38 ± 7.82 mmHg | BP before stimulation [9, 14]: 96.49 ± 7.55 mmHg | Change of BP [9, 14]: 26.12 ± 3.04 mmHg | Change of ICP [9, 14]: 33.09 ± 7.46 mmHg | Detumescence Time [9, 14]: 40.75 ± 4.79 s | ICP after stimulation [9, 14]: 41.58 ± 7.94 mmHg | ICP before stimulation [9, 14]: 8.49 ± 2.06 mmHg | BP after stimulation [9, 15]: 50.09 ± 22.36 mmHg | BP before stimulation [9, 15]: 76.38 ± 21.11 mmHg | Change of BP [9, 15]: 26.29 ± 1.54 mmHg | Change of ICP [9, 15]: 41.74 ± 7.92 mmHg | Detumescence Time [9, 15]: 64.00 ± 19.37 s | ICP after stimulation [9, 15]: 50.94 ± 11.12 mmHg | ICP before stimulation [9, 15]: 9.20 ± 8.79 mmHg | BP after stimulation ([9]; 6 hours after dosing, Low dose): 61.78 ± 17.93 mmHg | BP before stimulation ([9]; 6 hours after dosing, Low dose): 95.73 ± 18.25 mmHg | Change of BP ([9]; 6 hours after dosing, Low dose): 33.95 ± 3.20 mmHg | Change of ICP ([9]; 6 hours after dosing, Low dose): 31.38 ± 7.73 mmHg | Detumescence Time ([9]; 6 hours after dosing, Low dose): 47.75 ± 11.79 s | ICP after stimulation ([9]; 6 hours after dosing, Low dose): 40.36 ± 5.92 mmHg | ICP before stimulation ([9]; 6 hours after dosing, Low dose): 8.98 ± 3.06 mmHg | BP after stimulation [9, 16]: 61.03 ± 12.64 mmHg | BP before stimulation [9, 16]: 92.91 ± 19.51 mmHg | Change of BP [9, 16]: 31.88 ± 7.39 mmHg | Change of ICP [9, 16]: 33.49 ± 8.09 mmHg | Detumescence Time [9, 16]: 48.00 ± 23.85 s | ICP after stimulation [9, 16]: 40.21 ± 8.37 mmHg | ICP before stimulation [9, 16]: 6.72 ± 3.14 mmHg | BP after stimulation [9, 17]: 52.95 ± 14.12 mmHg | BP before stimulation [9, 17]: 94.16 ± 9.79 mmHg | Change of BP [9, 17]: 41.21 ± 11.98 mmHg | Change of ICP [9, 17]: 43.36 ± 4.90 mmHg | Detumescence Time [9, 17]: 60.75 ± 24.14 s | ICP after stimulation [9, 17]: 52.77 ± 2.07 mmHg | ICP before stimulation [9, 17]: 9.41 ± 3.81 mmHg | BP after stimulation [9, 18]: 72.34 ± 12.33 mmHg | BP before stimulation [9, 18]: 108.36 ± 8.89 mmHg | Change of BP [9, 18]: 36.03 ± 10.90 mmHg | Change of ICP [9, 18]: 30.65 ± 0.98 mmHg | Detumescence Time [9, 18]: 23.75 ± 12.84 s | ICP after stimulation [9, 18]: 43.55 ± 5.05 mmHg | ICP before stimulation [9, 18]: 12.91 ± 5.02 mmHg | BP after stimulation [9, 19]: 69.85 ± 12.70 mmHg | BP before stimulation [9, 19]: 102.18 ± 15.12 mmHg | Change of BP [9, 19]: 32.33 ± 8.76 mmHg | Change of ICP [9, 19]: 31.58 ± 5.75 mmHg | Detumescence Time [9, 19]: 41.25 ± 14.50 s | ICP after stimulation [9, 19]: 40.00 ± 5.56 mmHg | ICP before stimulation [9, 19]: 8.41 ± 1.86 mmHg | erectile function of the normal rat model, result in words ([9]; high, middle, and low doses, Tables 1-9): significantly improved the erectile function | IC50 [10]: 0.0336 µM
